Source: ChEMBL document CHEMBL1201861, “Genomics of Drug Sensitity in Cancer screening data, Wellcome Trust Sanger Institute”

Key:
Assay in all cases: cells
NCI-H1623 = assay type: functional, cell-based, Homo sapiens; settings: Homo sapiens, NCI-H1623;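 further: cell viability assay used as the read-out for growth inhibition of NCI-H1623 cells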
Description: SANGER: Inhibition of human NCI-H1623 cell growth in a cell viability assay.

A204 = assay type: functional, cell-based, Homo sapiens; settings: Homo sapiens, A204;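 further: growth inhibition of human A204 cells, read out with a cell viability assay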
Description: SANGER: Inhibition of human A204 cell growth in a cell viability assay.

TYK-nu = assay type: functional, cell-based, Homo sapiens; settings: Homo sapiens, TYK-nu;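 further: growth inhibition of human TYK-nu cells, read out by a cell viability assay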
Description: SANGER: Inhibition of human TYK-nu cell growth in a cell viability assay.

FTC-133 = assay type: functional, cell-based, Homo sapiens; settings: Homo sapiens, FTC-133
PANC-08-13 = assay type: functional, cell-based, Homo sapiens; settings: Homo sapiens, PANC-08-13;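 further: cell growth inhibition, measured with a cell viability assay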
Description: SANGER: Inhibition of human PANC-08-13 cell growth in a cell viability assay.

MFE-280 = assay type: functional, cell-based, Homo sapiens; settings: Homo sapiens, MFE-280;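 further: growth inhibition of MFE-280 cells, determined with a cell viability readout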
Description: SANGER: Inhibition of human MFE-280 cell growth in a cell viability assay.

MHH-ES-1 = assay type: functional, cell-based, Homo sapiens; settings: Homo sapiens, MHH-ES-1;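 further: cell growth inhibition measured by a cell viability assay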
Description: SANGER: Inhibition of human MHH-ES-1 cell growth in a cell viability assay.

K5 = assay type: functional, cell-based, Homo sapiens; settings: Homo sapiens, K5
Description: SANGER: Inhibition of human K5 cell growth in a cell viability assay.

Lu-65 = assay type: functional, cell-based; settings: Homo sapiens;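 further: growth inhibition of Lu-65 cancer cells, read out by a cell viability assay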
Description: SANGER: Inhibition of human LU-65 cell growth in a cell viability assay.

HTC-C3 = assay type: functional, cell-based, Homo sapiens; settings: Homo sapiens, HTC-C3;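 further: inhibition of cell growth, read out with a cell viability assay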
Description: SANGER: Inhibition of human HTC-C3 cell growth in a cell viability assay.

SK-MEL-28 = assay type: functional, cell-based; settings: Homo sapiens;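 further: growth inhibition of human SK-MEL-28 cells, read out with a cell viability assay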
Description: SANGER: Inhibition of human SK-MEL-28 cell growth in a cell viability assay.

KALS-1 = assay type: functional, cell-based, Homo sapiens; settings: Homo sapiens, KALS-1;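 further: growth inhibition of KALS-1 cells, determined with a cell viability assay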
Description: SANGER: Inhibition of human KALS-1 cell growth in a cell viability assay.

LNCaP-Clone-FGC = assay type: functional, cell-based, Homo sapiens; settings: Homo sapiens, LNCaP-Clone-FGC
Description: SANGER: Inhibition of human LNCaP-Clone-FGC cell growth in a cell viability assay.

TGBC24TKB = assay type: functional, cell-based, Homo sapiens; settings: Homo sapiens, TGBC24TKB;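 further: growth inhibition of human TGBC24TKB cells, read out with a cell viability assay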
Description: SANGER: Inhibition of human TGBC24TKB cell growth in a cell viability assay.

KMOE-2 = assay type: functional, cell-based; settings: Homo sapiens;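 further: growth inhibition of human KMOE-2 cells, read out with a cell viability assay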
Description: SANGER: Inhibition of human KMOE-2 cell growth in a cell viability assay.

SW982 = assay type: functional, cell-based; settings: Homo sapiens;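 further: growth inhibition of SW982 cells, read out with a cell viability assay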
Description: SANGER: Inhibition of human SW982 cell growth in a cell viability assay.

DoTc2-4510 = assay type: functional, cell-based, Homo sapiens; settings: Homo sapiens, DoTc2-4510
NCI-H2030 = assay type: functional, cell-based, Homo sapiens; settings: Homo sapiens, NCI-H2030;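 further: growth inhibition of human NCI-H2030 cells, read out by a cell viability assay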
Description: SANGER: Inhibition of human NCI-H2030 cell growth in a cell viability assay.

KYSE-510 = assay type: functional, cell-based, Homo sapiens; settings: Homo sapiens, KYSE-510;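 further: cell viability readout used to measure how strongly growth of the cell line is suppressed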
Description: SANGER: Inhibition of human KYSE-510 cell growth in a cell viability assay.

SW13 = assay type: functional, cell-based, Homo sapiens; settings: Homo sapiens, SW13;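 further: IC50 is inhibition of SW13 cell growth, read out with a cell viability assay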
Description: SANGER: Inhibition of human SW13 cell growth in a cell viability assay.

A4-Fuk = assay type: functional, cell-based; settings: Homo sapiens;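 further: growth inhibition of A4-Fuk cells, read out by a cell viability assay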
Description: SANGER: Inhibition of human A4-Fuk cell growth in a cell viability assay.

NCI-H2126 = assay type: functional, cell-based, Homo sapiens; settings: Homo sapiens, NCI-H2126;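 further: growth inhibition of the cancer cell line, determined with a cell viability readout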
Description: SANGER: Inhibition of human NCI-H2126 cell growth in a cell viability assay.

Detroit 562 = assay type: functional, cell-based, Homo sapiens; settings: Homo sapiens, Detroit 562;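 further: growth inhibition of human Detroit 562 cells, read out by a cell viability assay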
Description: SANGER: Inhibition of human Detroit562 cell growth in a cell viability assay.

RT-112 = assay type: functional, cell-based, Homo sapiens; settings: Homo sapiens, RT-112
Description: SANGER: Inhibition of human RT-112 cell growth in a cell viability assay.

D-392MG = assay type: functional, cell-based, Homo sapiens; settings: Homo sapiens, D-392MG
HCC1419 = assay type: functional, cell-based, Homo sapiens; settings: Homo sapiens, HCC1419;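 further: growth inhibition of human HCC1419 cells, read out as cell viability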
Description: SANGER: Inhibition of human HCC1419 cell growth in a cell viability assay.

LU-139 = assay type: functional, cell-based; settings: Homo sapiens
Description: SANGER: Inhibition of human LU-139 cell growth in a cell viability assay.

SNU-387 = assay type: functional, cell-based, Homo sapiens; settings: Homo sapiens, SNU-387
Description: SANGER: Inhibition of human SNU-387 cell growth in a cell viability assay.

Ca-Ski = assay type: functional, cell-based; settings: Homo sapiens;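 further: cell viability assay measuring inhibition of Ca-Ski cell growth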
Description: SANGER: Inhibition of human Ca-Ski cell growth in a cell viability assay.

ATN-1 = assay type: functional, cell-based; settings: Homo sapiens;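 further: growth inhibition of human ATN-1 cells, read out with a cell viability assay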
Description: SANGER: Inhibition of human ATN-1 cell growth in a cell viability assay.

MKN-1 = assay type: functional, cell-based, Homo sapiens; settings: Homo sapiens, MKN-1;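 further: growth inhibition of human MKN1 cells, read out by a cell viability measurement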
Description: SANGER: Inhibition of human MKN1 cell growth in a cell viability assay.

NCI-H526 = assay type: functional, cell-based; settings: Homo sapiens;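 further: growth inhibition of the human NCI-H526 cell line, measured by a cell viability assay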
Description: SANGER: Inhibition of human NCI-H526 cell growth in a cell viability assay.

CAL-51 = assay type: functional, cell-based, Homo sapiens; settings: Homo sapiens, CAL-51;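 further: human CAL-51 cell line, growth inhibition read out via a cell viability assay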
Description: SANGER: Inhibition of human CAL-51 cell growth in a cell viability assay.

ASPC1 = assay type: functional, cell-based, Homo sapiens; settings: Homo sapiens, ASPC1;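 further: growth inhibition of AsPC-1 cells, read out with a cell viability assay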
Description: SANGER: Inhibition of human AsPC-1 cell growth in a cell viability assay.

SCH = assay type: functional, cell-based, Homo sapiens; settings: Homo sapiens, SCH;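 further: growth inhibition of human SCH cells, read out in a cell viability assay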
Description: SANGER: Inhibition of human SCH cell growth in a cell viability assay.

KYSE-450 = assay type: functional, cell-based; settings: Homo sapiens;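 further: cell growth inhibition measured by a viability assay in human KYSE-450 cells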
Description: SANGER: Inhibition of human KYSE-450 cell growth in a cell viability assay.

NCI-H747 = assay type: functional, cell-based; settings: Homo sapiens;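 further: growth inhibition of human NCI-H747 cells, read out by a cell viability assay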
Description: SANGER: Inhibition of human NCI-H747 cell growth in a cell viability assay.

LB2241-RCC = assay type: functional, cell-based, Homo sapiens; settings: Homo sapiens, LB2241-RCC;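 further: cell viability assay measuring how strongly the cultured human renal carcinoma line is prevented from growing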
Description: SANGER: Inhibition of human LB2241-RCC cell growth in a cell viability assay.

M059J = assay type: functional, cell-based, Homo sapiens; settings: Homo sapiens, M059J;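 further: growth inhibition of M059J cells, read out with a cell viability assay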
Description: SANGER: Inhibition of human M059J cell growth in a cell viability assay.

KYSE-270 = assay type: functional, cell-based, Homo sapiens; settings: Homo sapiens, KYSE-270;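 further: cell growth inhibition measured with a viability assay in the human KYSE-270 line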
Description: SANGER: Inhibition of human KYSE-270 cell growth in a cell viability assay.

DB = assay type: functional, cell-based; settings: Homo sapiens
Description: SANGER: Inhibition of human DB cell growth in a cell viability assay.

IA-LM = assay type: functional, cell-based, Homo sapiens; settings: Homo sapiens, IA-LM;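 further: cell viability assay measuring growth inhibition of human IA-LM cells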
Description: SANGER: Inhibition of human IA-LM cell growth in a cell viability assay.

TE-12 = assay type: functional, cell-based; settings: Homo sapiens;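 further: growth inhibition of TE-12 cells, read out by a cell viability assay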
Description: SANGER: Inhibition of human TE-12 cell growth in a cell viability assay.

HC-1 = assay type: functional, cell-based; settings: Homo sapiens;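 further: growth inhibition of HC-1 cells measured by a cell viability assay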
Description: SANGER: Inhibition of human HC-1 cell growth in a cell viability assay.

LXF-289 cell line = assay type: functional, cell-based, Homo sapiens; settings: Homo sapiens, LXF-289
Description: SANGER: Inhibition of human LXF-289 cell growth in a cell viability assay.

SCC-25 = assay type: functional, cell-based, Homo sapiens; settings: Homo sapiens, SCC-25;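 further: growth inhibition of SCC-25 cells, measured with a cell viability assay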
Description: SANGER: Inhibition of human SCC-25 cell growth in a cell viability assay.

PFSK-1 = assay type: functional, cell-based, Homo sapiens; settings: Homo sapiens, PFSK-1;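 further: cell viability assay measuring how strongly compounds suppress growth of human PFSK-1 cells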
Description: SANGER: Inhibition of human PFSK-1 cell growth in a cell viability assay.

GCT = assay type: functional, cell-based, Homo sapiens; settings: Homo sapiens, GCT;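 further: GCT cell line proliferation inhibition, read out with a cell viability assay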
Description: SANGER: Inhibition of human GCT cell growth in a cell viability assay.

ES4 = assay type: functional, cell-based, Homo sapiens; settings: Homo sapiens, ES4;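 further: growth inhibition of human ES4 cells, read out by a cell viability assay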
Description: SANGER: Inhibition of human ES4 cell growth in a cell viability assay.

HT = assay type: functional, cell-based; settings: Homo sapiens
Description: SANGER: Inhibition of human HT cell growth in a cell viability assay.

TGBC1TKB = assay type: functional, cell-based, Homo sapiens; settings: Homo sapiens, TGBC1TKB;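 further: growth inhibition of TGBC1TKB cells, read out by a cell viability assay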
Description: SANGER: Inhibition of human TGBC1TKB cell growth in a cell viability assay.

CAL-12T = assay type: functional, cell-based, Homo sapiens; settings: Homo sapiens, CAL-12T;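 further: growth inhibition of human CAL-12T cells, read out with a cell viability assay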
Description: SANGER: Inhibition of human CAL-12T cell growth in a cell viability assay.

SMILES: CN(c1ncccc1CNc1nc(Nc2ccc3c(c2)CC(=O)N3)ncc1C(F)(F)F)S(C)(=O)=O [PF-00562271]
- IC50 (NCI-H1623): > 2560 nM
- IC50 (A204): > 2560 nM
- IC50 (TYK-nu): > 2560 nM
- IC50 (FTC-133): > 2560 nM
- IC50 (PANC-08-13): > 2560 nM
- IC50 (MFE-280): > 2560 nM
- IC50 (MHH-ES-1): 1800 nM
- IC50 (K5): > 2560 nM
- IC50 (Lu-65): > 2560 nM
- IC50 (HTC-C3): > 2560 nM
- IC50 (SK-MEL-28): > 2560 nM
- IC50 (KALS-1): > 2560 nM
- IC50 (LNCaP-Clone-FGC): > 2560 nM
- IC50 (TGBC24TKB): > 2560 nM
- IC50 (KMOE-2): > 2560 nM
- IC50 (SW982): 328 nM
- IC50 (DoTc2-4510): > 2560 nM
- IC50 (NCI-H2030): > 2560 nM
- IC50 (KYSE-510): > 2560 nM
- IC50 (SW13): > 2560 nM
- IC50 (A4-Fuk): > 2560 nM
- IC50 (NCI-H2126): > 2560 nM
- IC50 (Detroit 562): 1350 nM
- IC50 (RT-112): 985 nM
- IC50 (D-392MG): > 2560 nM
- IC50 (HCC1419): > 2560 nM
- IC50 (LU-139): > 2560 nM
- IC50 (SNU-387): 2530 nM
- IC50 (Ca-Ski): > 2560 nM
- IC50 (ATN-1): > 2560 nM
- IC50 (MKN-1): > 2560 nM
- IC50 (NCI-H526): > 2560 nM
- IC50 (CAL-51): > 2560 nM
- IC50 (ASPC1): > 2560 nM
- IC50 (SCH): > 2560 nM
- IC50 (KYSE-450): > 2560 nM
- IC50 (NCI-H747): > 2560 nM
- IC50 (LB2241-RCC): > 2560 nM
- IC50 (M059J): > 2560 nM
- IC50 (KYSE-270): 1050 nM
- IC50 (DB): > 2560 nM
- IC50 (IA-LM): > 2560 nM
- IC50 (TE-12): > 2560 nM
- IC50 (HC-1): > 2560 nM
- IC50 (LXF-289 cell line): > 2560 nM
- IC50 (SCC-25): > 2560 nM
- IC50 (PFSK-1): > 2560 nM
- IC50 (GCT): > 2560 nM
- IC50 (ES4): > 2560 nM
- IC50 (HT): > 2560 nM
- IC50 (TGBC1TKB): > 2560 nM
- IC50 (CAL-12T): > 2560 nM

SMILES: Cn1cc(C2=C(c3ccc(Cl)cc3Cl)C(=O)NC2=O)c2ccccc21 [SB-216763]
- IC50 (NCI-H1623): > 10000 nM
- IC50 (A204): > 10000 nM
- IC50 (TYK-nu): > 10000 nM
- IC50 (FTC-133): > 10000 nM
- IC50 (PANC-08-13): > 10000 nM
- IC50 (MFE-280): > 10000 nM
- IC50 (MHH-ES-1): > 10000 nM
- IC50 (K5): 1540 nM
- IC50 (Lu-65): > 10000 nM
- IC50 (HTC-C3): > 10000 nM
- IC50 (SK-MEL-28): > 10000 nM
- IC50 (KALS-1): > 10000 nM
- IC50 (LNCaP-Clone-FGC): > 10000 nM
- IC50 (TGBC24TKB): > 10000 nM
- IC50 (KMOE-2): > 10000 nM
- IC50 (SW982): > 10000 nM
- IC50 (DoTc2-4510): > 10000 nM
- IC50 (NCI-H2030): > 10000 nM
- IC50 (KYSE-510): > 10000 nM
- IC50 (SW13): > 10000 nM
- IC50 (A4-Fuk): > 10000 nM
- IC50 (NCI-H2126): > 10000 nM
- IC50 (Detroit 562): > 10000 nM
- IC50 (RT-112): > 10000 nM
- IC50 (D-392MG): > 10000 nM
- IC50 (HCC1419): > 10000 nM
- IC50 (LU-139): > 10000 nM
- IC50 (SNU-387): > 10000 nM
- IC50 (Ca-Ski): > 10000 nM
- IC50 (ATN-1): > 10000 nM
- IC50 (MKN-1): > 10000 nM
- IC50 (NCI-H526): 48.9 nM
- IC50 (CAL-51): > 10000 nM
- IC50 (ASPC1): > 10000 nM
- IC50 (SCH): > 10000 nM
- IC50 (KYSE-450): > 10000 nM
- IC50 (NCI-H747): > 10000 nM
- IC50 (LB2241-RCC): 6430 nM
- IC50 (M059J): > 10000 nM
- IC50 (KYSE-270): > 10000 nM
- IC50 (DB): > 10000 nM
- IC50 (IA-LM): > 10000 nM
- IC50 (TE-12): > 10000 nM
- IC50 (HC-1): > 10000 nM
- IC50 (LXF-289 cell line): > 10000 nM
- IC50 (SCC-25): > 10000 nM
- IC50 (PFSK-1): > 10000 nM
- IC50 (GCT): > 10000 nM
- IC50 (ES4): > 10000 nM
- IC50 (HT): > 10000 nM
- IC50 (TGBC1TKB): > 10000 nM
- IC50 (CAL-12T): > 10000 nM
